US9255094B2, “Pyrido[4,3-B]indoles and methods of use” (Medivation Technologies, Inc., priority 2009, dated 2016)

Legend:
[1] = target: T1, human recombinant adrenergic α2C receptor (Homo sapiens, UniProt P18825); assay: Adrenergic α2C radioligand binding assay ([3H]MK-912); conditions: compound at 0.1 μM; 1 nM [3H]MK-912; insect Sf9 cells; read-out: Percent Inhibition of ligand binding, Adrenergic (0.1 μM) a2C
T1 construct: expressed in transfected cells; host or cells: insect Sf9 cells
T1 sequence (P18825 1-462): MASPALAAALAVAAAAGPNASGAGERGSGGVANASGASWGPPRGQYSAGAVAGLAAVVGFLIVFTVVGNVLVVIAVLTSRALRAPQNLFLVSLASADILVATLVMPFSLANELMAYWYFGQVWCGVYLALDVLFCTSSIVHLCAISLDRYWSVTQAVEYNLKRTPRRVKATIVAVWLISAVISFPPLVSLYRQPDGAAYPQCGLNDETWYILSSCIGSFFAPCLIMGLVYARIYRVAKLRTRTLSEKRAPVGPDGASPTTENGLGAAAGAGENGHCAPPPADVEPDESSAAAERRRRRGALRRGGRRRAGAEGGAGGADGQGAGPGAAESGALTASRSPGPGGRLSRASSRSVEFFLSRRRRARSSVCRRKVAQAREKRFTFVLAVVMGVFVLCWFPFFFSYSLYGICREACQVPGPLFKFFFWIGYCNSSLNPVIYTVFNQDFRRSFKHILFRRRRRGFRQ
Protocol: To evaluate in radioligand binding assays the activity of compounds of the invention, human recombinant adrenergic α2C receptor expressed in insect Sf9 cells (Uhlen S et al. J. Pharmacol. Exp. Ther. 271:1558, 1994) in a modified Tris-HCl buffer (50 mM Tris-HCl, pH 7.4, 12.5 mM MgCl2, 2 mM EDTA) is used. Compounds of the invention are incubated with 1 nM [^3H]MK-912 for 60 min at 25° C. Non-specific binding is estimated in the presence of 10 μM WB-4101. Receptor proteins are filtered and washed, the filters are then counted to determine [^3H]MK-912 specifically bound. Compounds are screened at 1 μM or lower, using 1% DMSO as vehicle. Compounds of the invention are tested in this biochemical assay and percent inhibition of specific binding is determined.

[2] = target: T2, human recombinant serotonin (5-Hydroxytryptamine) 5-HT2A receptor (Homo sapiens, UniProt P28223); assay: Serotonin 5-HT2A radioligand binding assay ([3H]Ketanserin); conditions: 0.5 nM [3H]Ketanserin, CHO-K1 cells; for inhibition at 1 µM: compound at 1 μM, read-out: Percent Inhibition of ligand binding, Serotonin (1 μM) 5-HT2A; for inhibition at 0.1 µM: compound at 0.1 μM, read-out: Percent Inhibition of ligand binding, Serotonin (0.1 μM) 5-HT2A
T2 construct: expressed in transfected cells; host or cells: Chinese hamster ovary (CHO-K1) cells
Protocol: Compounds of the invention were incubated with 0.5 nM [^3H]Ketanserin for 60 min at 25° C. Non-specific binding was estimated in the presence of 1 μM Mianserin. Receptor proteins were filtered and washed, the filters were then counted to determine [^3H]Ketanserin specifically bound. Compounds were screened at 1 μM or lower, using 1% DMSO as vehicle. Biochemical assay results are presented as the percent inhibition of specific binding in Table 4.

[3] = target: human recombinant histamine H1 receptor (Homo sapiens, UniProt P35367); assay: Histamine H1 radioligand binding assay ([3H]Pyrilamine); conditions: receptor expressed in CHO cells; for inhibition at 1 µM: compound at 1 μM; for inhibition at 0.1 µM: compound at 0.1 μM
In short: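 Membranes from CHO cells expressing the receptor, in 50 mM Tris-HCl pH 7.4 with 2 mM MgCl2, 100 mM NaCl and 250 mM sucrose, incubated with 1.2 nM [3H]pyrilamine for 180 min at 25° C; nonspecific binding defined with 1 μM pyrilamine.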

[4] = target: T3, human recombinant adrenergic α1D receptor (Homo sapiens, UniProt P25100); assay: Adrenergic α1D radioligand binding assay ([3H]Prozosin); conditions: compound at 1 μM; 0.6 nM [3H]Prozosin; HEK-293 cells; read-out: Percent Inhibition of ligand binding, Adrenergic (1 μM) a1D
T3 construct: expressed in transfected cells; host or cells: human embryonic kidney (HEK-293) cells
T3 sequence (P25100 1-572): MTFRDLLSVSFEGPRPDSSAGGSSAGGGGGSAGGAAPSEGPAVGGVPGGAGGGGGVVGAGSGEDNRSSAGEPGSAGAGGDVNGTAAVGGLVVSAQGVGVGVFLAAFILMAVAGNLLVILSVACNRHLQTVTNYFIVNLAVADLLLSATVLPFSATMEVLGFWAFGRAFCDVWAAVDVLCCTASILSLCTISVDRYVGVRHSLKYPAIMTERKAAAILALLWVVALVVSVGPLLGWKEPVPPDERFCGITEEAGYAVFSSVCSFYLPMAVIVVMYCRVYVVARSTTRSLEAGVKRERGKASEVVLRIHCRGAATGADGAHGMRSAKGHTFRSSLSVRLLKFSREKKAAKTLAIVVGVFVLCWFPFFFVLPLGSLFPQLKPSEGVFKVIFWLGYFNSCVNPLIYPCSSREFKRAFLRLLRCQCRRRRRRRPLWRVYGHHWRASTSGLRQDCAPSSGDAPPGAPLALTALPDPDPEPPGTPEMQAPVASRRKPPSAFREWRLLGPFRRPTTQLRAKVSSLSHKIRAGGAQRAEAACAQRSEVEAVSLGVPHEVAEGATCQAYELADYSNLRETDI
Protocol: Compounds of invention were incubated with 0.6 nM [^3H]Prozosin for 60 min at 25° C. Non-specific binding was estimated in the presence of 10 μM phentolamine Receptor proteins were filtered and washed, the filters were then counted to determine [^3H]Prozosin specifically bound.

[5] = target: human recombinant dopamine D2L receptor (Homo sapiens, UniProt P14416); assay: Dopamine D2L radioligand binding assay ([3H]Spiperone); conditions: compound at 1 μM, 0.16 nM [3H]Spiperone, CHO cells, read-out: Percent Inhibition of ligand binding, Dopamine (1μM)
Protocol: Compounds of the invention were incubated with 0.16 nM [^3H]Spiperone for 120 min at 25° C. Non-specific binding was estimated in the presence of 10 μM Haloperidol. Receptor proteins were filtered and washed, the filters were then counted to determine [^3H]Spiperone specifically bound. Compounds were screened at 1 μM or lower, using 1% DMSO as vehicle. Biochemical assay results are presented as the percent inhibition of specific binding in Table 3.

Chain of human recombinant histamine H1 receptor (P35367 whole entry): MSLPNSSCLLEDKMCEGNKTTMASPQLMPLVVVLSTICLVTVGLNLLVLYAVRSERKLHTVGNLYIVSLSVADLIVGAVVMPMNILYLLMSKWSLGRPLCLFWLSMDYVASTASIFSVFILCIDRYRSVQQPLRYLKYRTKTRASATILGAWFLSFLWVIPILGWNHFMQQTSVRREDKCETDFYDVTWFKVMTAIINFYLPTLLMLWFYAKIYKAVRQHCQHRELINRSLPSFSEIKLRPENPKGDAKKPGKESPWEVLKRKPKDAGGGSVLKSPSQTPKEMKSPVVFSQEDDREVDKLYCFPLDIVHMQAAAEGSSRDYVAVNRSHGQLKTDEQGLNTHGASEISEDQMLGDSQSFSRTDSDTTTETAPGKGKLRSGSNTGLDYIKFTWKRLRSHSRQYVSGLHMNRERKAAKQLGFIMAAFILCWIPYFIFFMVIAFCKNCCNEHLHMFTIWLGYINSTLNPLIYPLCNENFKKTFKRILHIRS
T2 sequence (P28223 whole entry): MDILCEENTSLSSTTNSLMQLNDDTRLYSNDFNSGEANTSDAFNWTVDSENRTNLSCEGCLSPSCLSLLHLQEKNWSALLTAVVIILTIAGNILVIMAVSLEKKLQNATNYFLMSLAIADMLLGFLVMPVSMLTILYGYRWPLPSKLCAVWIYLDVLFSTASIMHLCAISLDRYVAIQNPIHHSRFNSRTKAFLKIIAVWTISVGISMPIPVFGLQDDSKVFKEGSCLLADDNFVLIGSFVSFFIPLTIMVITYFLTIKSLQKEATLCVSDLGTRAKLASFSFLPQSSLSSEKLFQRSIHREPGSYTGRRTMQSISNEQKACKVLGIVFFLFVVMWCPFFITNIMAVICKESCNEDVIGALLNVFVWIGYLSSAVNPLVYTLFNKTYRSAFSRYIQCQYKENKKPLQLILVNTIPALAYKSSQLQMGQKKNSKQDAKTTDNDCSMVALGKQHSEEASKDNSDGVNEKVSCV
Chain of human recombinant dopamine D2L receptor (P14416 whole entry): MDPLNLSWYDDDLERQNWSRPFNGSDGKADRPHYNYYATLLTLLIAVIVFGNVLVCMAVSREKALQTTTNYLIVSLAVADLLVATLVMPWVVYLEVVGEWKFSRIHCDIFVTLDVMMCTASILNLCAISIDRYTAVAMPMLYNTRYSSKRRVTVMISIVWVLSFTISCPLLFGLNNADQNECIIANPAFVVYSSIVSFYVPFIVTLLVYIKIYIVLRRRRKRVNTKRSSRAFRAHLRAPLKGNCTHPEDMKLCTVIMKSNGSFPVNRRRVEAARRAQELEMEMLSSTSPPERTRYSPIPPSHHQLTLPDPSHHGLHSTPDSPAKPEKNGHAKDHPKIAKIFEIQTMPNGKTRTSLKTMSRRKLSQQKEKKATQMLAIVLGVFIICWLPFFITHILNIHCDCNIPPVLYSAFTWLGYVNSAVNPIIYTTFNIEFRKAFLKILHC

**Q.** With Cc1ccc2c(c1)c1c(n2CC(O)c2ccncc2)CCN(C)C1 (stereo not drawn) [Compound 1-8, 2-(2,8-dimethyl-3,4-dihydro-1H-pyrido[4,3-b]indol-5(2H)-yl)-1-(pyridin-4-yl)ethanol] as the molecule, how does the inhibition at 0.1 µM [1] read?
**A.** 5%

**Q.** And the inhibition at 1 µM [2]?
**A.** 86%

**Q.** Which inhibition at 0.1 µM [1] does the source give for CN1CCc2c(c3cc(Cl)ccc3n2CC(O)c2ccncc2)C1 (stereo not drawn) [Compound 1-11, 2-(8-chloro-2-methyl-3,4-dihydro-1H-pyrido[4,3-b]indol-5(2H)-yl)-1-(pyridin-4-yl)ethanol] here?
**A.** 26%

**Q.** And the inhibition at 1 µM [2]?
**A.** 82%

**Q.** How did the inhibition at 0.1 µM [1] turn out when Cc1ccc2c(c1)c1c(n2CC(C)(O)c2ccc(O)cc2)CCN(C)C1 (stereo not drawn) [Compound 1-15, 4-(1-(2,8-dimethyl-3,4-dihydro-1H-pyrido[4,3-b]indol-5(2H)-yl)-2-hydroxypropan-2-yl)phenol] was run?
**A.** 5%

**Q.** And the inhibition at 1 µM [2]?
**A.** 102%

**Q.** CN1CCc2c(c3cc(Cl)c(Cl)cc3n2CC(C)(O)c2ccncc2)C1 (stereo not drawn) [Compound 1-17, 1-(7,8-dichloro-2-methyl-3,4-dihydro-1H-pyrido[4,3-b]indol-5(2H)-yl)-2-(pyridin-4-yl)propan-2-ol] was tested. Which inhibition at 0.1 µM [1] did it give?
**A.** 39%

**Q.** What about the inhibition at 1 µM [2] of the same molecule?
**A.** 96%

**Q.** What does the source list for Cc1ccc2c(c1)c1c(n2CCc2ccc(C)nc2)CCN(CCC#N)C1 [Compound 1-34, 3-(8-methyl-5-(2-(6-methylpyridin-3-yl)ethyl)-3,4-dihydro-1H-pyrido[4,3-b]indol-2(5H)-yl)propanenitrile]?
**A.** inhibition at 1 µM [3]: 65%; inhibition at 1 µM [4]: 6%; inhibition at 1 µM [5]: -4%; inhibition at 1 µM [2]: 0%

**Q.** Which results are given for Cc1ccc2c(c1)c1c(n2CC(=O)c2ccccc2)CCN(C)C1 [Compound 1-35, 2-(2,8-dimethyl-3,4-dihydro-1H-pyrido[4,3-b]indol-5(2H)-yl)-1-phenylethanone]?
**A.** inhibition at 1 µM [3]: 52%; inhibition at 1 µM [4]: 18%; inhibition at 1 µM [5]: 4%; inhibition at 1 µM [2]: 90%

**Q.** With CN1CCc2c(c3cc(Cl)ccc3n2CC(=O)c2ccccc2)C1 [Compound 1-36, 2-(8-chloro-2-methyl-3,4-dihydro-1H-pyrido[4,3-b]indol-5(2H)-yl)-1-phenylethanone] as the molecule, how does the inhibition at 1 µM [3] read?
**A.** 84%

**Q.** What about the inhibition at 1 µM [4] of the same molecule?
**A.** 52%

**Q.** And the inhibition at 1 µM [5]?
**A.** 73%

**Q.** And the inhibition at 1 µM [2]?
**A.** 98%

**Q.** What does the source list for CN1CCc2c(c3cc(Cl)ccc3n2CC(=O)c2ccc(F)cc2)C1 [Compound 1-37, 2-(8-chloro-2-methyl-3,4-dihydro-1H-pyrido[4,3-b]indol-5(2H)-yl)-1-(4-fluorophenyl)ethanone]?
**A.** inhibition at 1 µM [3]: 83%; inhibition at 1 µM [4]: 56%; inhibition at 1 µM [5]: 85%; inhibition at 1 µM [2]: 98%

**Q.** What does the source list for CN1CCc2c(c3cc(Cl)ccc3n2CC(=O)c2ccc(Cl)cc2)C1 [Compound 1-38, 2-(8-chloro-2-methyl-3,4-dihydro-1H-pyrido[4,3-b]indol-5(2H)-yl)-1-(4-chlorophenyl)ethanone]?
**A.** inhibition at 1 µM [3]: 91%; inhibition at 1 µM [4]: 56%; inhibition at 1 µM [5]: 44%; inhibition at 1 µM [2]: 100%

**Q.** Which results are given for Cc1ccc2c(c1)c1c(n2CC(=O)c2ccc(F)cc2)CCN(C)C1 [Compound 1-39, 2-(2,8-dimethyl-3,4-dihydro-1H-pyrido[4,3-b]indol-5(2H)-yl)-1-(4-fluorophenyl)ethanone]?
**A.** inhibition at 1 µM [3]: 86%; inhibition at 1 µM [4]: 57%; inhibition at 1 µM [5]: 57%; inhibition at 1 µM [2]: 98%

**Q.** With Cc1ccc2c(c1)c1c(n2CCc2ccc(CCCN)nc2)CCN(C)C1 [Compound 1-40, 3-(5-(2-(2,8-dimethyl-3,4-dihydro-1H-pyrido[4,3-b]indol-5(2H)-yl)ethyl)pyridin-2-yl)propan-1-amine] as the molecule, how does the inhibition at 1 µM [3] read?
**A.** 81%

**Q.** And the inhibition at 1 µM [4]?
**A.** 53%

**Q.** What about the inhibition at 1 µM [5] of the same molecule?
**A.** 3%

**Q.** And the inhibition at 1 µM [2]?
**A.** 78%

**Q.** Which inhibition at 1 µM [3] does the source give for Cc1ccc2c(c1)c1c(n2CCc2ccc(C(F)(F)F)nc2)CCNC1 [Compound 1-41, 8-methyl-5-(2-(6-(trifluoromethyl)pyridin-3-yl)ethyl)-2,3,4,5-tetrahydro-1H-pyrido[4,3-b]indole] here?
**A.** 72%

**Q.** And the inhibition at 1 µM [4]?
**A.** 74%

**Q.** And the inhibition at 1 µM [5]?
**A.** -8%

**Q.** And the inhibition at 1 µM [2]?
**A.** 66%

**Q.** With Cc1ccc2c(c1)c1c(n2CCc2ccc(C)nc2)CCN(CCCO)C1 [Compound 1-42, 3-(8-methyl-5-(2-(6-methylpyridin-3-yl)ethyl)-3,4-dihydro-1H-pyrido[4,3-b]indole-2(5H)-yl)propan-1-ol] as the molecule, how does the inhibition at 1 µM [3] read?
**A.** 93%

**Q.** And the inhibition at 1 µM [4]?
**A.** 55%

**Q.** What about the inhibition at 1 µM [5] of the same molecule?
**A.** 11%

**Q.** What about the inhibition at 1 µM [2] of the same molecule?
**A.** 87%

**Q.** For Cc1ccc2c(c1)c1c(n2CC(C)c2ccncc2)CCN(C)C1 (stereo not drawn) [Compound 1-46, 2,8-dimethyl-5-(2-(pyridin-4-yl)propyl)-2,3,4,5-tetrahydro-1H-pyrido[4,3-b]indole], which inhibition at 1 µM [3] is on record?
**A.** 90%

**Q.** What about the inhibition at 0.1 µM [1] of the same molecule?
**A.** 22%

**Q.** And the inhibition at 1 µM [5]?
**A.** 37%

**Q.** What about the inhibition at 0.1 µM [2] of the same molecule?
**A.** 71%

**Q.** What does the source list for Cc1ccc2c(c1)c1c(n2CC(C)(C)c2ccncc2)CCN(C)C1 [Compound 1-49, 2,8-dimethyl-5-(2-methyl-2-(pyridin-4-yl)propyl)-2,3,4,5-tetrahydro-1H-pyrido[4,3-b]indole]?
**A.** inhibition at 1 µM [3]: 94%; inhibition at 0.1 µM [1]: 43%; inhibition at 1 µM [5]: 54%; inhibition at 0.1 µM [2]: 78%

**Q.** What does the source list for CC[C@@](O)(Cn1c2c(c3cc(C)ccc31)CN(C)CC2)c1ccc(F)cc1 [Compound 1-66, (S)-1-(2,8-dimethyl-3,4-dihydro-1H-pyrido[4,3-b]indol-5(2H)-yl)-2-(4-fluorophenyl)butan-2-ol]?
**A.** inhibition at 0.1 µM [3]: -12%; inhibition at 0.1 µM [1]: 18%; inhibition at 1 µM [5]: 6%; inhibition at 0.1 µM [2]: 77%

**Q.** Which inhibition at 0.1 µM [3] does the source give for CCCC[C@@](O)(Cn1c2c(c3cc(Cl)ccc31)CN(C)CC2)c1ccc(F)cc1 [Compound 1-67, (S)-1-(8-chloro-2-methyl-3,4-dihydro-1H-pyrido[4,3-b]indol-5(2H)-yl)-2-(4-fluorophenyl)hexan-2-ol] here?
**A.** -2%

**Q.** What about the inhibition at 0.1 µM [1] of the same molecule?
**A.** 13%

**Q.** And the inhibition at 1 µM [5]?
**A.** 20%

**Q.** And the inhibition at 0.1 µM [2]?
**A.** 39%
